According to patent US20090162351A1, “Transdiscal administration of inhibitors of p38 MAP kinase” (DePuy Spine, Inc., priority 2007, published 2009):

How the values were obtained:
[1] = test system: bovine chondrocyte pellets / ARC tissues stimulated with IL-1β; test: Chondrocyte pellet / ARC culture model: GAG degradation assay; assay type: cell-based; details: Bos taurus, Chondrocyte; at 10 μM; read-out: GAG Release (inhibition), Pellet Assay
[2] = test system: IL-1β-stimulated NO production in bovine chondrocyte pellets / ARC tissues; test: Chondrocyte pellet / ARC culture model: total nitrite and nitrate assay; assay type: cell-based; details: Bos taurus, Chondrocyte; at 10 μM
[3] = test system: chondrocytes; assay type: cell-based
Experimental: The LDH activity was determined calorimetrically in an enzymatic test based on the conversion of lactic acid to pyruvate in the presence of chromagenic substrate tetrazolium salt INT that was reduced to formazan.

[4] = test system: injured bovine cartilage explants
From the text: Bovine articular cartilage was obtained from the knee joints of adult, eighteen to twenty-four month old animals and processed within twenty-four hours after sacrifice. […] Care was taken to consistently prepare the same thickness of bone layer. The cartilage-on-bone specimens were subjected to an impact. […] After each impact, the cartilage area with a visible indent of ˜0.5-1 mm in the center was punched out with a 3 mm diameter puncher and immediately soaked in PBS with 1× Antibiotic-Antimycotic. Throughout the impact procedure and preparation of specimens, the cartilage was kept moist using PBS to prevent tissue dehydration. The cartilage discs were sterilized through 3× one hour wash in PBS with 10× Antibiotic-Antimycotic followed by 1×0.5 hour wash in PBS with 1× Antibiotic-Antimycotic. After wash, the specimens were incubated with conditioned medium harvested from peripheral blood mononuclear cells (PBMC) stimulated with or without LPS and at the same time, were treated with or without compounds for five days at 37° C., 5% CO2. Culture medium was collected for GAG release, NO and PGE2 assays, and assessment for cytotoxicity.
Cell death was assessed by measuring the amount of lactate dehydrogenase (LDH) in the culture supernatant. 10-20 μl of culture medium was incubated with the reaction mixture from the Cytotoxicity Detection Kit (LDH, Roche), as described in Example III above. The amount of formazan formed was measured at 500 nm, which was proportional to the number of dead cells. Since no purified LDH was available for a standard curve at each measurement, an LDH level for 100% dead cells was measured in each experiment. The lysate for the dead cells was prepared as follows: Chondrocytes were enzymatically isolated as described earlier and about 0.1 million cells that were equivalent to the number of cells contained in a 3-mm punch of fresh cartilage explant were lysed in 1 ml of PBS with 1% Triton-100. Approximately 10-20 μl of the lysate was used in the assay as killed cell control. […]

[5] = test system: IL-1β-stimulated PGE2 synthesis in bovine chondrocyte pellets / ARC tissues; test: Chondrocyte pellet / ARC culture model: Prostaglandin E2 assay; assay type: cell-based; details: Bos taurus, Chondrocyte; at 10 μM

CO[C@H]1C[C@@H]2CC[C@@H](C)[C@@](O)(O2)C(=O)C(=O)N2CCCC[C@H]2C(=O)O[C@H]([C@H](C)C[C@@H]2CC[C@@H](O)[C@H](OC)C2)CC(=O)[C@H](C)/C=C(\C)[C@@H](O)[C@@H](OC)C(=O)[C@H](C)C[C@H](C)/C=C/C=C/C=C/1C [Rapamycin, reference compound]
inhibition at 10 µM [1]: 50%
inhibition at 10 µM [2]: 30%
cytotoxicity to chondrocytes, LDH (in words) [3]: little toxicity
cytotoxicity, LDH (in words) [4]: little cytotoxicity
inhibition at 10 µM [5]: 47%
